Patent US10220112B2, “Cyclic antimicrobial pseudopeptides and uses thereof” (INSERM (INSTITUT NATIONAL DE LA SANTE ET DE LA RECHERCHE …, priority 2014, dated 2019)
Values after ≈ are worked out from the molar mass of the structure shown.

How the values were obtained:
[1] = test system: VISA strain S. aureus Mu 50; assay: microbe, parasite or virus in culture; conditions: Staphylococcus aureus, read-out: VISA MIC
human erythrocytes = assay: Lytic activity against human erythrocytes; type: cell-based; conditions: Table 2; for Human cells H50: maximal concentration 500 μM
Method: Human blood was collected from EFS (‘Etablissement Francais du Sang’) in Rennes (France). […] After centrifugation, the absorbance of the supernatant was measured at 414 nm. Three wells were positive controls, where the RBC were mixed with water 1% Triton X-100, in these wells the totality of RBC were hemolyzed and the release of hemoglobin was considered to be 100%. Three wells were negative controls, where the RBC were mixed with PBS buffer, in these wells hemolysis was considered to be null. The percentage of hemolysis in each test well was calculated by comparing with controls. For each peptide, bloods from three different donors were tested.

[2] = test system: MRSA strain S. aureus N315; assay: microbe, parasite or virus in culture; conditions: Staphylococcus aureus, read-out: MRSA MIC
E. coli strain ML-35p = assay: E. coli outer and inner membrane permeabilization assays (nitrocefin / ONPG); type: cell-based, Escherichia coli
Method: E. coli outer and inner membrane permeability was determined by using E. coli strain ML-35p, which is lactose permease deficient. Nitrocefin, β-lactam is excluded by the outer cell membrane but, if it can pass this barrier thanks to the action of an AMP, it is then cleaved by the β-lactamase localized within the periplasm. ONPG, passes through lac permease and is cleaved by the cytoplasmic β-galactosidase, however with the ML-35p E. coli strain, ONPG is excluded unless permeabilization is achieved. The permeabilization assays were carried out with 100 μL of bacteria in MH broth at A600 nm 0.1-0.2 (10^7 cfu/mL, density necessary to detect degradation products). […] ONPG was added to a 100 μg/ml final concentration and substrate cleavage was monitored by light absorption measurements at 420 nm. Polymixin B at 8 μM against 10^7 cfu/mL was used as positive control. Bacterial suspension in MH broth plus substrates was used as negative control (untreated cells).

| Compound | MIC [1] [µM] | Human cells % hemolysis at 500 μM (human erythrocytes) [%] | Human cells H50 (human erythrocytes) | MIC [2] [µM] | time to detection of the reporter, inner membrane (E. coli strain ML-35p; ONPG, polymixin B 8 μM, peptides 6 μM and 12 μM) [min] | time to detection of the reporter, outer membrane (E. coli strain ML-35p; nitrocefin, polymixin B at 8 μM) [s] |
| --- | --- | --- | --- | --- | --- | --- |
| COc1cccc(OC)c1C(=O)N[C@@H]1C(=O)N2[C@@H]1SC(C)(C)[C@@H]2C(=O)O [Meticillin, reference compound] | > 500 | 0.12 | nd (not detectable at the maximal concentration tested (500 μM)) | – | – | – |
| CN[C@H](CC(C)C)C(=O)N[C@H]1C(=O)N[C@@H](CC(N)=O)C(=O)N[C@H]2C(=O)N[C@H]3C(=O)N[C@H](C(=O)N[C@H](C(=O)O)c4cc(O)cc(O)c4-c4cc3ccc4O)[C@H](O)c3ccc(c(Cl)c3)Oc3cc2cc(c3O[C@@H]2O[C@H](CO)[C@@H](O)[C@H](O)[C@H]2O[C@H]2C[C@](C)(N)[C@H](O)[C@H](C)O2)Oc2ccc(cc2Cl)[C@H]1O [Vancomycin, reference compound] | 1 (≈ 1.45 µg/mL) | 0.15 | nd (not detectable at the maximal concentration tested (500 μM)) | 32 (≈ 46.4 µg/mL) | – | – |
| polymixin B | – | – | – | – | 20 | 30 |
